In patent US20240360157A1, “TYK2 INHIBITORS” (BIOGEN MA INC., priority 2021, published 2024):

Legend:
Type in all cases: biochemical
[1] = molecular target: human JAK3 catalytic kinase (JH1) domain (Homo sapiens (Human), UniProt P52333); assay: ADP-Glo Kinase Assay, recombinant JAK3 catalytic kinase (JH1) domain; conditions: recombinant JH1 domain 0.3 nM, 4 μM ATP, JAK3-974 peptide, mean, read-out: JAK3 biochem IC50 (nM) Mean
Outline: (§1)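 Reactions ran 100 min with 50 μM substrate peptide (JAK3-342 for JAK1 at 4 nM enzyme; JAK3-974 for JAK2 0.2 nM, JAK3 0.3 nM, TYK2 2 nM), and ADP formed was read by ADP-Glo luminescence. Eleven-point 3-fold series from 10 or 1 μM; IC50 fitted by 4-parameter logistic model.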

[2] = molecular target: human TYK2 catalytic kinase (JH1) domain (Homo sapiens (Human), UniProt P29597); assay: ADP-Glo Kinase Assay, recombinant TYK2 catalytic kinase (JH1) domain; conditions: recombinant JH1 domain 2 nM, 10 μM ATP, JAK3-974 peptide, mean, read-out: TYK2 biochem IC50 (nM) Mean
Outline: as §1

[3] = molecular target: human JAK1 catalytic kinase (JH1) domain (Homo sapiens (Human), UniProt P23458); assay: ADP-Glo Kinase Assay, recombinant JAK1 catalytic kinase (JH1) domain; conditions: recombinant JH1 domain 4 nM, 35 μM ATP, JAK3-342 peptide, mean, read-out: JAK1 biochem IC50 (nM) Mean
Outline: as §1

[4] = molecular target: human JAK2 catalytic kinase (JH1) domain (Homo sapiens (Human), UniProt O60674); assay: ADP-Glo Kinase Assay, recombinant JAK2 catalytic kinase (JH1) domain; conditions: recombinant JH1 domain 0.2 nM, 15 μM ATP, JAK3-974 peptide, mean, read-out: JAK2 biochem IC50 (nM) Mean
Outline: as §1

Sequence of human JAK3 catalytic kinase (JH1) domain (P52333 822-1111): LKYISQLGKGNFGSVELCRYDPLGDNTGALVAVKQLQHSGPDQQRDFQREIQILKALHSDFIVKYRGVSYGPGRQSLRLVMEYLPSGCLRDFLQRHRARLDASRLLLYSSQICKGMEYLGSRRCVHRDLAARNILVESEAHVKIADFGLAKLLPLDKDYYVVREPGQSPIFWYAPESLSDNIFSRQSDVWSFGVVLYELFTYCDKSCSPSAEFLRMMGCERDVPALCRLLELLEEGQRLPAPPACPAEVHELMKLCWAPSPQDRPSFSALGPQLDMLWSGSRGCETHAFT
Sequence of human TYK2 catalytic kinase (JH1) domain (P29597 897-1176): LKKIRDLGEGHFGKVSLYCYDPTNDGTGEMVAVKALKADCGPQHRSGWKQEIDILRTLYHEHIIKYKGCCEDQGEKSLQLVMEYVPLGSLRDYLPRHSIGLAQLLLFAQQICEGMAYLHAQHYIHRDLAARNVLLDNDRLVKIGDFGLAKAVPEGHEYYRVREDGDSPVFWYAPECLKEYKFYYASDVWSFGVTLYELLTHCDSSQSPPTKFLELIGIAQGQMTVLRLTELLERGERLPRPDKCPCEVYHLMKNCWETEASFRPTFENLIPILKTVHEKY
Sequence of human JAK2 catalytic kinase (JH1) domain (O60674 849-1124): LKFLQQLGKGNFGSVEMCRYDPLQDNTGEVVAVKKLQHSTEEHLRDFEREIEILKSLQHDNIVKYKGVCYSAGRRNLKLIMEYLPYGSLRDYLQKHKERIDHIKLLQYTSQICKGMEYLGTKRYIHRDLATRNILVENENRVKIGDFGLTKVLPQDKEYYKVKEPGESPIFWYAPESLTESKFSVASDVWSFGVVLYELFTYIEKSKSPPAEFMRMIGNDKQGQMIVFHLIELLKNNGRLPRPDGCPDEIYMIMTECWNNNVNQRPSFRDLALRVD
Sequence of human JAK1 catalytic kinase (JH1) domain (P23458 875-1153): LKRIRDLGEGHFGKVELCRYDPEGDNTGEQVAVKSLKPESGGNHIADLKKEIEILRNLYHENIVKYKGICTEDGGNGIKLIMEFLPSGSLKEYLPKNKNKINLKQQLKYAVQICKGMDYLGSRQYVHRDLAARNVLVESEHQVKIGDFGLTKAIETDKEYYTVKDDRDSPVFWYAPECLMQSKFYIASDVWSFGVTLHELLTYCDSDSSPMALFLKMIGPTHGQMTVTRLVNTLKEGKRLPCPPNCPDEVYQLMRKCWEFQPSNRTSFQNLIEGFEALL

SMILES	IC50 [1]	IC50 [2]	IC50 [3]	IC50 [4]
COc1nn(C)cc1-c1cc2c(N3CC4CCC(C3)N4C(=O)[C@@H]3C[C@H]3F)ccnn2c1 [Example 134, ((1S,2R)-2-fluorocyclopropyl)(3-(6-(3-methoxy-1-methyl-1H-pyrazol-4-yl)pyrrolo[1,2-b]pyridazin-4-yl)-3,8-diazabicyclo[3.2.1]octan-8-yl)methanone]	588 nM	1.4 nM	114 nM	24 nM
COc1cc(-c2cc3c(N4CC5CCC(C4)N5C(=O)[C@@H]4C[C@H]4F)ccnn3c2)cnn1 [Example 137, ((1S,2R)-2-fluorocyclopropyl)(3-(6-(6-methoxypyridazin-4-yl)pyrrolo[1,2-b]pyridazin-4-yl)-3,8-diazabicyclo[3.2.1]octan-8-yl)methanone]	4200 nM	17.6 nM	150 nM	220 nM
CN(C)c1cc(-c2cc3c(N4CC5CCC(C4)N5C(=O)[C@@H]4C[C@H]4F)ccnn3c2)cnn1 [Example 138, (3-(6-(6-(dimethylamino)pyridazin-4-yl)pyrrolo[1,2-b]pyridazin-4-yl)-3,8-diazabicyclo[3.2.1]octan-8-yl)((1S,2R)-2-fluorocyclopropyl)methanone]	3930 nM	13.8 nM	57 nM	395 nM
COc1cc(-c2cc3c(N4CC5CCC(C4)N5C(=O)[C@@H]4C[C@H]4F)c(F)cnc3[nH]2)ccn1 [Example 139, (3-(5-fluoro-2-(2-methoxypyridin-4-yl)-1H-pyrrolo[2,3-b]pyridin-4-yl)-3,8-diazabicyclo[3.2.1]octan-8-yl)((1S,2R)-2-fluorocyclopropyl)methanone]	144 nM	5.5 nM	39 nM	74 nM
O=C(C1CC1)N1C2CCC1CN(c1c(F)cnn3cc(-c4cnn(C(F)F)c4)cc13)C2 [Example 140, cyclopropyl(3-(6-(1-(difluoromethyl)-1H-pyrazol-4-yl)-3-fluoropyrrolo[1,2-b]pyridazin-4-yl)-3,8-diazabicyclo[3.2.1]octan-8-yl)methanone]	738 nM	56 nM	834 nM	1480 nM
Cn1cnc(-c2cc3c(N4CC5CCC(C4)N5C(=O)C4CC4)ncnn3c2)c1 [Example 143, Cyclopropyl(3-(6-(1-methyl-1H-imidazol-4-yl)pyrrolo[2,1-f][1,2,4]triazin-4-yl)-3,8-diazabicyclo[3.2.1]octan-8-yl)methanone]	9690 nM	533 nM	10000 nM	9940 nM
O=C(C1CC1)N1C2CCC1CN(c1ncnn3cc(-c4cnn(C(F)F)c4)cc13)C2 [Example 144]	10000 nM	622 nM	9320 nM	10000 nM
Cn1cc(-c2cc3c(N4CC5CCC(C4)N5C(=O)C4CC4)ncnn3c2)c(F)n1 [Example 145]	6520 nM	202 nM	2360 nM	6020 nM
Cn1cc(-c2cc3c(N4CC5CCC(C4)N5C(=O)C4CC4)ncnn3c2)cn1 [Example 146, cyclopropyl(3-(6-(1-methyl-1H-pyrazol-4-yl)pyrrolo[2,1-f][1,2,4]triazin-4-yl)-3,8-diazabicyclo[3.2.1]octan-8-yl)methanone]	3240 nM	166 nM	1880 nM	5850 nM
CCn1cc(-c2cc3c(N4CC5CCC(C4)N5C(=O)C4CC4)ncnn3c2)cn1 [Example 147]	2090 nM	147 nM	974 nM	2960 nM
CC(C)n1cc(-c2cc3c(N4CC5CCC(C4)N5C(=O)C4CC4)ncnn3c2)cn1 [Example 148]	2140 nM	136 nM	731 nM	1650 nM
O=C(C1CC1)N1C2CCC1CN(c1ncnn3cc(-c4cnn(C5CCC5)c4)cc13)C2 [Example 149]	3010 nM	141 nM	942 nM	3130 nM
O=C(C1CC1)N1C2CCC1CN(c1ncnn3cc(-c4cnn(C(F)F)c4)cc13)C2 [Example 150]	5620 nM	190 nM	1850 nM	3370 nM
O=C(C1CC1)N1C2CCC1CN(c1ncnn3cc(-c4cnn(C5COC5)c4)cc13)C2 [Example 151]	3380 nM	239 nM	3300 nM	4100 nM
O=C(C1CC1)N1C2CCC1CN(c1ncnn3cc(-c4cnn(C5CCOC5)c4)cc13)C2 (stereo not shown) [Example 152]	2590 nM	145 nM	1670 nM	2150 nM
O=C(C1CC1)N1C2CCC1CN(c1ncnn3cc(-c4cnn(C5CCOCC5)c4)cc13)C2 [Example 153]	1900 nM	99.2 nM	1280 nM	1520 nM
O=C(C1CC1)N1C2CCC1CN(c1ncnn3cc(-c4cnn(C(F)(F)F)c4)cc13)C2 [Example 154]	10000 nM	490 nM	2950 nM	10000 nM
O=C(C1CC1)N1C2CCC1CN(c1ncnn3cc(-c4cnn(CF)c4)cc13)C2 [Example 155]	4000 nM	293 nM	1810 nM	5180 nM
O=C(C1CC1)N1C2CCC1CN(c1ncnn3cc(-c4cnn([C@@H]5CCOC5)c4)cc13)C2 [Example 156, cyclopropyl(3-(6-(1-((R)-tetrahydrofuran-3-yl)-1H-pyrazol-4-yl)pyrrolo[2,1-f][1,2,4]triazin-4-yl)-3,8-diazabicyclo[3.2.1]octan-8-yl)methanone]	3850 nM	251 nM	1500 nM	3860 nM
O=C(C1CC1)N1C2CCC1CN(c1ncnn3cc(-c4cnn([C@H]5CCOC5)c4)cc13)C2 [Example 157, cyclopropyl(3-(6-(1-((S)-tetrahydrofuran-3-yl)-1H-pyrazol-4-yl)pyrrolo[2,1-f][1,2,4]triazin-4-yl)-3,8-diazabicyclo[3.2.1]octan-8-yl)methanone]	2250 nM	151 nM	1380 nM	2270 nM
Cc1cc(-c2cc3c(N4CC5CCC(C4)N5C(=O)C4CC4)ncnn3c2)on1 [Example 158, Cyclopropyl(3-(6-(3-methylisoxazol-5-yl)pyrrolo[2,1-f][1,2,4]triazin-4-yl)-3,8-diazabicyclo[3.2.1]octan-8-yl)methanone]	10000 nM	656 nM	8060 nM	10000 nM
Cn1cc(-c2cc3c(N4CC5CCC(C4)N5C(=O)[C@@H]4C[C@H]4F)ccnn3c2)cn1 [Example 159, ((1S,2R)-2-fluorocyclopropyl)(3-(6-(1-methyl-1H-pyrazol-4-yl)pyrrolo[1,2-b]pyridazin-4-yl)-3,8-diazabicyclo[3.2.1]octan-8-yl)methanone]	263 nM	1.1 nM	51 nM	30 nM
O=C(C1CC1)N1C2CCC1CN(c1ncnn3cc(-c4cnn(CC5COC5)c4)cc13)C2 [Example 160]	780 nM	107 nM	555 nM	931 nM
CCn1ncc(-c2cc3c(N4CC5CCC(C4)N5C(=O)C4CC4)ncnn3c2)c1F [Example 161]	1230 nM	120 nM	492 nM	2460 nM
CC(C)n1ncc(-c2cc3c(N4CC5CCC(C4)N5C(=O)C4CC4)ncnn3c2)c1F [Example 162]	1250 nM	94.9 nM	210 nM	1620 nM
